Drawing on patent US5981576A, “(Methylsulfonyl)phenyl-2-(5H)-furanones as COX-2 inhibitors” (Merck Frosst Canada, Inc., priority 1998, dated 1999), this text covers IC50 for 24 compounds.

A word on the pIC50: it is −log10 of the IC50, conventionally taken in molar units. One may read the IC50 as the concentration needed to halve the response being measured.

pIC50: −log10 of the molar value. Some results are limits rather than exact numbers.

Chain of COX-1 (P23219 24-599): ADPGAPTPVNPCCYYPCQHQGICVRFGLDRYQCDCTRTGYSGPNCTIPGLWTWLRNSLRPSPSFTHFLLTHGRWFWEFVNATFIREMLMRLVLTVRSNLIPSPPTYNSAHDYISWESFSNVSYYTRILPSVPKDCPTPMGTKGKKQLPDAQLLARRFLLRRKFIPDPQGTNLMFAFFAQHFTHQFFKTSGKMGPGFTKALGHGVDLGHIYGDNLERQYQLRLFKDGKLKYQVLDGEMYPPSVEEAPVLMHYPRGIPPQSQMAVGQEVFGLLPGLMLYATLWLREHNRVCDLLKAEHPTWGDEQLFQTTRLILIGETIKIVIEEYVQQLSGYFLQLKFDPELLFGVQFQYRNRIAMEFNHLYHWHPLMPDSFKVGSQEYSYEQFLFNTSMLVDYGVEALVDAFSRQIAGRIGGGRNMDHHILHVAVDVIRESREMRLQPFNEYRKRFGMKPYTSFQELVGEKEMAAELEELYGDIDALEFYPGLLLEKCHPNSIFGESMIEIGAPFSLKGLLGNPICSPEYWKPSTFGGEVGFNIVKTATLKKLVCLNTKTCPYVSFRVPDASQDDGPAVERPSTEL

The first test has as its target COX-1 (Homo sapiens, UniProt P23219). Nature of the test: biochemical. As to conditions: Table III; U937. It counts as biochemical. How it is done: Compounds are tested as inhibitors of cyclooxygenase activity in whole cell cyclooxygenase assays. Both of these assays measure prostaglandin E2 synthesis in response to arachidonic acid, using a radioimmunoassay. Cells used for these assays are human osteosarcoma 143 cells (which specifically express COX-2) and human U-937 cells (which specifically express COX-1). In these assays, 100% activity is defined as the difference between prostaglandin E2 synthesis in the absence and presence of arachidonate.
U 937 cells are pelleted by centrifugation at 500×g for 5 min and washed once with phosphate-buffered saline and repelleted. Cells are resuspended in homogenization buffer consisting of 0.1 M Tris-HCl, pH 7.4, 10 mM EDTA, 2 μg/ml leupeptin, 2 μg/ml soybean trypsin inhibitor, 2 μg/ml aprotinin and 1 mM phenyl methyl sulfonyl fluoride. The cell suspension is sonicated 4 times for 10 sec and is centrifuged at 10,000×g for 10 min at 4° C. The supernatant is centrifuged at 100,000×g for 1 hr at 4 ° C. The 100,000×g microsomal pellet is resuspended in 0.1 M Tris-HCl, pH 7.4, 10 mM EDTA to approximately 7 mg protein/ml and stored at -80° C.
Microsomal preparations are thawed immediately prior to use, subjected to a brief sonication, and then diluted to a protein concentration of 125 μg/ml in 0.1 M Tris-HCl buffer, pH 7.4 containing 10 mM EDTA, 0.5 mM phenol, 1 mM reduced glutathione and 1 μM hematin. Assays are performed in duplicate in a final volume of 250 μl. Initially, 5 μd of DMSO vehicle or drug in DMSO are added to 20 μl of 0.1 M Tris-HCl buffer, pH 7.4 containing 10 mM EDTA in wells of a 96-deepwell polypropylene titre plate. 200 μl of the microsomal preparation are then added and pre-incubated for 15 min at room temperature before addition of 25 μl of […] in 0.1 M Tris-HCl and 10 mM EDTA, pH 7.4. […] Cyclooxygenase activity is defined as the difference between PGE2 levels in samples incubated in the presence of arachidonic acid and ethanol vehicle.
Compound `CC1(C)OC(=O)C(C(O)c2ccc(F)c(F)c2)=C1c1ccc(S(C)(=O)=O)cc1` (centres unmarked) [Example 17, 3-(3,4-Difluorophenylhydroxymethyl)-5,5-dimethyl-4-(4-(methylsulfonyl)phenyl)-5H-furan-2-one] gave a pIC50 below 5.00.
For `CC1(C)OC(=O)C(C(=O)c2ccc(F)c(F)c2)=C1c1ccc(S(C)(=O)=O)cc1` [Example 18, 3-(3,4-Difluorobenzoyl)-5,5-dimethyl-4-(4-(methylsulfonyl)phenyl)-5H-furan-2-one], the negative logarithm of the IC50 (pIC50) is below 4.52.
On the same count and under the same terms, with `CC1(C)OC(=O)C(Oc2cccc(F)c2)=C1c1ccc(S(C)(=O)=O)cc1` [Example 2, 3-(3-Fluorophenoxy)-5,5-dimethyl-4-(4-(methylsulfonyl)phenyl)-5H-furan-2-one] the figure was 5.52; with `Cc1cccc(OC2=C(c3ccc(S(C)(=O)=O)cc3)C(C)(C)OC2=O)n1` [Example 27, 3-(6-Methyl-2-pyridyloxy)-5,5-dimethyl-4-(4-(methylsulfonyl)phenyl)-5H-furan-2-one], below 5.00; with `CC1(C)OC(=O)C(Sc2ccc(F)cc2)=C1c1ccc(S(C)(=O)=O)cc1` [Example 9, 3-(4-Fluorophenylthio)-5,5-dimethyl-4-(4-(methylsulfonyl)phenyl)-5H-furan-2-one], below 5.00.
In turn, `CS(=O)(=O)c1ccc(C2=C(Sc3ccccc3)C(=O)OC23CCCC3)cc1` [Example 21, 4-(4-(Methylsulfonyl)phenyl)-3-phenylthio-1-oxaspiro[4.4]non-3-en-2-one] had a pIC50 below 5.00.
For `CN(C1=C(c2ccc(S(C)(=O)=O)cc2)C(C)(C)OC1=O)c1ccccc1` [Example 13, 3-(N-Methyl-N-phenylamino)-5,5-dimethyl-4-(4-(methylsulfonyl)phenyl)-5H-furan-2-one], the negative-log IC50 (pIC50) is below 5.00.
On the same count and under the same terms, in the case of `CC1(C)OC(=O)C(Oc2ccc(Cl)c(Cl)c2)=C1c1ccc(S(C)(=O)=O)cc1` [Example 7, 3-(3,4-Dichlorophenoxy)-5,5-dimethyl-4-(4-(methylsulfonyl)phenyl)-5H-furan-2-one] it was 6.00; in that of `CS(=O)(=O)c1ccc(C2=C(Oc3ccccc3)C(=O)OC23CCCC3)cc1` [Example 20, 4-(4-(Methylsulfonyl)phenyl)-3-phenoxy-1-oxaspiro[4.4]non-3-en-2-one], 6.52.
`CC1(C)OC(=O)C(Sc2cc(F)cc(F)c2)=C1c1ccc(S(C)(=O)=O)cc1` [Example 10, 3-(3,5-Difluorophenylthio)-5,5-dimethyl-4-(4-(methylsulfonyl)phenyl)-5H-furan-2-one] had a pIC50 below 5.00.
`CC1(C)OC(=O)C(Oc2ccc(F)cc2F)=C1c1ccc(S(C)(=O)=O)cc1` [Example 5, 3-(2,4-Difluorophenoxy)-5,5-dimethyl-4-(4-(methylsulfonyl)phenyl)-5H-furan-2-one] had a negative-log IC50 (pIC50) of 6.52.
Still for that read-out and setting: with `CC1(C)OC(=O)C(Oc2ccccn2)=C1c1ccc(S(C)(=O)=O)cc1` [Example 26, 3-(2-pyridyloxy)-5,5-dimethyl-4-(4-(methylsulfonyl)phenyl)-5H-furan-2-one] the figure was around 5.00; with `CC1(C)OC(=O)C(C(=O)c2ccccc2)=C1c1ccc(S(C)(=O)=O)cc1` [Example 19b, 3-Benzoyl-5,5-dimethyl-4-(4-(methylsulfonyl)phenyl)-5H-furan-2-one], below 5.00.
The same measure, in the same setting: with `CC1(C)OC(=O)C(Oc2ccc(F)cc2)=C1c1ccc(S(C)(=O)=O)cc1` [Example 8, 3-(4-Fluorophenoxy)-5,5-dimethyl-4-(4-(methylsulfonyl)phenyl)-5H-furan-2-one] the figure was 6.52; with `CC1(C)OC(=O)C(Cc2ccccc2)=C1c1ccc(S(C)(=O)=O)cc1` [Example 16, 3-Benzyl-5,5-dimethyl-4-(4-(methylsulfonyl)phenyl)-5H-furan-2-one], below 5.00; with `CC1(C)OC(=O)C(Cc2ccc(F)cc2)=C1c1ccc(S(C)(=O)=O)cc1` [Example 23, 3-(4-Fluorobenzyl)-5,5-dimethyl-4-(4-(methylsulfonyl)phenyl)-5H-furan-2-one], below 4.52.
`CC1(C)OC(=O)C(Oc2ccc(Cl)cc2)=C1c1ccc(S(C)(=O)=O)cc1` [Example 6, 3-(4-Chlorophenoxy)-5,5-dimethyl-4-(4-(methylsulfonyl)phenyl)-5H-furan-2-one] had a pIC50 of 6.40.
With `CC1(C)OC(=O)C(Nc2ccccc2)=C1c1ccc(S(C)(=O)=O)cc1` [Example 12, 3-(N-Phenylamino)-5,5-dimethyl-4-(4-(methylsulfonyl)phenyl)-5H-furan-2-one], the pIC50 was below 5.00.
Turning to `NS(=O)(=O)c1ccc(C2=C(Sc3ccccc3)C(=O)OC23CCCC3)cc1` [Example 22, 4-(2-Oxo-3-phenylthio-1-oxa-spiro[4,4]non-3-en-4-yl)benzene-sulfonamide], the pIC50 was below 6.00.

The next test concerns the target T1, COX-2 (Homo sapiens, UniProt P35354).
T1 sequence (P35354 18-604): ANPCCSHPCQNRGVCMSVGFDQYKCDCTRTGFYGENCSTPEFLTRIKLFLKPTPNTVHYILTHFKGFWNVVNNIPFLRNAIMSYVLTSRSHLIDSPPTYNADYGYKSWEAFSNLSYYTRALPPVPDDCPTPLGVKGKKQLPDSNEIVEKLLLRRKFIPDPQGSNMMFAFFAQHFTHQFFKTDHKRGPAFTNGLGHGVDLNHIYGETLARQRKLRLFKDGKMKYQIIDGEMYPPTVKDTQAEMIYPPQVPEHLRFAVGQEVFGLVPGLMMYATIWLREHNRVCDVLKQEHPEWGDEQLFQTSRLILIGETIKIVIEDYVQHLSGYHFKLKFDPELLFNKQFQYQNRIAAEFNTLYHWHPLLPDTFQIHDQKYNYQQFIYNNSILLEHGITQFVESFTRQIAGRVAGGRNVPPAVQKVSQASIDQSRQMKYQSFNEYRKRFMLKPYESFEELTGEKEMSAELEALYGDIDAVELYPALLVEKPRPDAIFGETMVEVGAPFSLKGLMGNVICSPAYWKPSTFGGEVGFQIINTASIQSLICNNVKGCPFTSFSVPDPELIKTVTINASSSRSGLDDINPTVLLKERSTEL
The test is described as follows: cell-based. As to conditions: Table IV; CHO[hCOX-2] cells, 10 μM AA. How it is done:
Chinese hamster ovary (CHO) cell lines which have been stably transfected with an eukaryotic expression vector pCDNAIII containing either the human COX-1 or COX-2 cDNA's are used for the assay. These cell lines are referred to as CHO [hCOX-1] and CHO [hCOX-2], respectively. […] Cells (0.3×10^6 cells in 200 μl) are preincubated with 3 μl of the test drug or DMSO vehicle for 15 min at 37° C. […] Cells are then challenged in the presence or absence of drug with the AA/HBSS solution to yield a final concentration of 0.5 μM AA in the CHO[hCOX-1] assay and a final concentration of 10 μM AA in the CHO[hCOX-2] assay. […] The samples are centrifuged at 300×g at 4° C. for 10 min, and an aliquot of the clarified supernatant is appropriately diluted for the determination of PGE2 levels using an enzyme-linked immunoassay for PGE2 (Correlate PGE2 enzyme immunoassay kit, Assay Designs, Inc.). Cyclooxygenase activity in the absence of test compounds is determined as the difference in PGE2 levels of cells challenged with arachidonic acid versus the PGE2 levels in cells mock-challenged with ethanol vehicle. Inhibition of PGE2 synthesis by test compounds is calculated as a percentage of the activity in the presence of drug versus the activity in the positive control samples.
The compound `Cc1ncc(OC2=C(c3ccc(S(C)(=O)=O)cc3)C(C)(C)OC2=O)cc1Br` [Example 137] gave an IC50 of 0.55 µM.
Compound `CC1(C)OC(=O)C(Oc2cccc(C(F)(F)F)c2)=C1c1ccc(S(C)(=O)=O)cc1` [Example 110] showed an IC50 above 5 µM.
Turning to `CC1(C)OC(=O)C(Oc2ccc(C(C)(C)O)cc2)=C1c1ccc(S(C)(=O)=O)cc1` [Example 191], the IC50 came to 0.98 µM.

The next test addresses T1, COX-2. The test is described as follows: cell-based. As to conditions: Table IV; human whole blood, LPS-induced PGE2; read-out: COX-2 (IC50, μM) HWB. From the text:
As well, platelets in whole blood contain a large amount of the COX-1 enzyme. Immediately following blood clotting, platelets are activated through a thrombin-mediated mechanism. […] Therefore, the degree of selectivity by the test compound can be determined by measuring the levels of PGE2 after LPS induction (COX-2) and TxB2 following blood clotting (COX-1) in the same assay.
A. COX-2 (LPS-induced PGF, production)
Fresh blood is collected in heparinized tubes by venipuncture from both male and female volunteers. The subjects have no apparent inflammatory conditions and have not taken any NSAIDs for at least 7 days prior to blood collection. Plasma is immediately obtained from a 2 mL blood aliquot to use as blank (basal levels of PGE2).
For `CC1(COC2=C(c3ccc(S(C)(=O)=O)cc3)C(C)(C)OC2=O)CC1` [Example 173], the half-maximal inhibitory concentration (IC50) was below 0.41 µM.
The same measure, in the same setting: with `Cc1ncc(OC2=C(c3ccc(S(C)(=O)=O)cc3)C(C)(C)OC2=O)cc1Br` [Example 137] the figure was 5.2 µM; with `C[C@]1(CC(F)(F)F)OC(=O)C(Oc2ccc(Cl)cn2)=C1c1ccc(S(C)(=O)=O)cc1` [Example 130, (5R)-3-(5-Chloro-2-pyridyloxy)-5-methyl-4-(4-methylsulfonyl)phenyl-5-(2,2,2-trifluoroethyl)-5H-furan-2-one], below 0.41 µM.
In the case of `CC1(C)OC(=O)C(Oc2ccc(C(C)(C)O)cc2)=C1c1ccc(S(C)(=O)=O)cc1` [Example 191], the IC50 was found to be 4.3 µM.
